The source of these data is US10981940B2, “Trityl protecting agent” (SEKISUI MEDICAL CO., LTD., priority 2016, dated 2021).

This data set is described as follows: Solubility in CPME (cyclopentyl methyl ether), dissolved to saturation at 25° C. The data set is classed as physicochemical. To be noted: dissolved to saturation in CPME (cyclopentyl methyl ether) at 25° C. As to the method:
Peptide used as a model: H-Phe-Leu-Gly-OH
H-Phe-Leu-Gly-OH and H-Phe-Leu-Gly-O-(TIPS2-4,4′-diClTrt) were synthesized, and the respective compounds were dissolved to saturation in CPME (cyclopentyl methyl ether) at 25° C. Thus, the solubilities were measured.

Values after ≈ are worked out from the molar mass of the structure shown. Where a SMILES comes first, the peptide text is derived from it.

As a reminder, the solubility is the dissolved amount per volume that the medium holds. Higher therefore signals much dissolved substance. On to `CC(C)C[C@H](NC(=O)[C@@H](N)Cc1ccccc1)C(=O)NCC(=O)OC(c1ccc(Cl)cc1)(c1ccc(Cl)cc1)c1cc(OCCCCCCCCCCCO[Si](C(C)C)(C(C)C)C(C)C)cc(OCCCCCCCCCCCO[Si](C(C)C)(C(C)C)C(C)C)c1` [H-Phe-Leu-Gly-O-(TIPS2-4,4′-diClTrt)], for which the solubility is ≥ 1030 mM.

In turn, `CC(C)C[C@H](NC(=O)[C@@H](N)Cc1ccccc1)C(=O)NCC(=O)O` [H-Phe-Leu-Gly-OH] (H-Phe-Leu-Gly-OH) came in with a solubility of 0.9 mM (≈ 0.302 mg/mL).
